Results from patent EP1762239A1, “Lofexidine for intraspinal administration” (Texcontor Etablissement, priority 2005, dated 2007).
“And” between values parts separate entries of the source, which are not always exact repeats. Equal values may be shown once. Where a name gives a salt, the structure may show the parent alone.

Key:
[1] = Brief observation of general behavior after intrathecal injection; type: in vivo, Wistar rats; settings: 0.00032 mg/rat and 0.0032 mg/rat (ITH)
Description: Evaluation for pain was performed at 24 hours postoperatively between 08:00 and 16:00h. Each animal was monitored at 15, 30, 60 and 120 minutes after intrathecal administration of lofexidine.HCl. The rats were placed under inverted plexiglas cages on a wire mesh rack and a brief observation of general behavior post-injection was made. The rigid tip part of the Electronic Von Frey Aesthesiometer was applied perpendicularly from underneath the mesh floor to the four points around the wound surface of the animal with slow upward force against the paw. A positive response to tactile pressure was recorded if the paw was sharply withdrawn; ambulation was considered an ambiguous response, and in such cases, the stimulus was reapplied. Mean values from 4 points for each rat and from 5 rats in each group were calculated. Percent inhibition due to treatment relative to pre-treatment pain response was calculated according to the formula: Tactile Pressure [(Post-Treatment) - (Pre-Treatment)]/[(Pre-Incision) - (Pre-Treatment)] x 100%. Inhibition by 50% or more (≥50%) is considered significant analgesic effect. Unpaired Student's t test is applied for comparison of the % inhibition values between test substance-and vehicle-treated groups. Significance is considered at P<0.05 level

[2] = test system: rat model of neuropathic pain; assay: Nerve ligation-induced chronic (neuropathic) pain model, mechanical allodynia by electronic von Frey; type: in vivo, Wistar rats; settings: for Tactile Pressure (g) Post-Treatment Average / Tactile Pressure (g) Δ Treatment Average: group of 5; for Tactile Pressure (g) Post-Treatment / Tactile Pressure (g) Δ Treatment: individual animal; for Inhibition (%): Δ Treatment/Δ Blank x 100%
Description: Lofexidine was evaluated for possible analgesic activity in neuropathic pain using a nerve ligation-induced chronic pain model in rats. Lofexidine HCl was administered intrathecally (ITH) at 3.2 and 10 µg/animal and analgesia was measured at 15, 30, 60 and 120 minutes post-dosing using an Electronic Von Frey Aesthesiometer (IITC, USA) with a #12 supertip. A 50 % or greater (≥50%) inhibition relative to blank indicates possible analgesic activity. Lofexidine HCl at doses of 3.2 and 10 µg/animal were administered intrathecally. Sterile Saline (obtained from Sintong Biotech Company, Taiwan) was used as vehicle and dosing volume was 10 µl/animal. Male Wistar rats provided by Biolasco Taiwan (under a Charles River Laboratories Technology Licensee) were used. Space allocation for 6 animals was 45 x 23 x 21 cm. Animals were housed in APEC^R cages and maintained in a controlled temperature (22-23°C) and humidity (60-70%) environment with 12 hours light dark cycles for at least one week in MDS Pharma Services - Taiwan Laboratory prior to use. Free access to standard lab chow for rats (Lab Diet, Rodent Diet, PMI Nutrition International, USA) and tap water was granted. All aspects of this work including housing, experimentation and disposal of animals were performed in general accordance with the Guide for the Care and Use of Laboratory Animals (National Academy Press, Washington, D. C, 1996). Male Wistar rats weighing 160 to 200 g were used. Under pentobarbital (50 mg/kg, 5 ml/kg, i.p.) anesthesia, the sciatic nerve was exposed at mid-thigh level. Three ligatures (4-0 silk suture), about 1 mm apart, were loosely tied around th e nerve. The animals were then housed individually in cages with soft bedding for 7 days before testing for mechanical allodynia. On the test day, rats were placed under inverted plexiglas cages on a wire mesh rack and allowed to acclimatise for 20 to 30 minutes. Allodynia was evaluated by responsiveness to a #12 Supertip® (IITC, USA) applied beneath the mesh floor perpendicular to the central plantar surface of the left hind paw. The tip was gradually applied with sufficient force to cause slight buckling of the filament against the paw. A positive response to the applied tactile pressure, noted by sharp withdrawal of the paw, was recorded automatically by an Electronic Von Frey Aesthesiometer (2290CE Electrovonfrey®, IITC, USA). The endpoint is the withdrawal threshold (gm) to von Frey filament, serving as a measure of analgesic activity. Rats were pre-selected (for presence of allodynia) for experimentation only if the withdrawal threshold 7 days after nerve ligation (pre-treatment) was reduced by 10 grams of force relative to the response of the individual paw before nerve ligation (pre-ligation). Test substance or vehicle was administered intrathecally (3.2 µg and 10 µg/animal) to groups of 5 animals and the level of allodynia was again determined (at 15, 30, 60 and 120 minutes post-treatment). Allodynia is calculated as follows: % Inhibition=Δ Treatment/Δ Blank x 100%; where Δ Treatment is Tactile Pressure [(Post-Treatment) -(Pre-Treatment)] and Δ Blank is Tactile Pressure [(Pre-Ligation) - (Pre-Treatment)]. A 50 percent or greater (≥50%) inhibition relative to blank indicates possible analgesic activity.

[3] = given orally; dosages of up to 1200 µg per day; Human Reproduction, Vol. 16, No. 8, 2001; cited from earlier work
[4] = systemically (e.g. orally or by intravenous injection), especially at high doses (e.g. >600 µg per day); cited from earlier work
[5] = 3.2 µg/animal ITH, 120 Minutes, listed as Lofexidine HCI
[6] = 10 µg/animal ITH, 120 Minutes, listed as Lofexidine HCI

In the case of CC(Oc1c(Cl)cccc1Cl)C1=NCCN1 (stereo not drawn) [Lofexidine HCl], the “behavioral changes in treated animals” value [1] is reported as “did not cause behavioral changes”, the “gait after intrathecal injection” value ([1]; all treated animals) is reported as “normal gait” and the analgesic activity ([2]; 3.2 µg/animal) is reported as “low levels of analgesic activity”. The “Tactile Pressure (g) Post-Treatment Average” value ([2]; 3.2 µg/animal ITH, 15 Minutes) was 12.5 g, the “Tactile Pressure (g) Δ Treatment Average” value ([2]; 3.2 µg/animal ITH, 15 Minutes, Δ Blank 30.2) was 1.3 g and the “Tactile Pressure (g) Post-Treatment” value ([2]; 3.2 µg/animal ITH, 15 Minutes) was 8.9 g and 5.8 g and 23.3 g and 13.4 g and 10.9 g. For the same compound, the “Tactile Pressure (g) Δ Treatment” value ([2]; 3.2 µg/animal ITH, 15 Minutes) was -1.8 g and -5.2 g and 8.5 g and 6.3 g and -1.1 g, the Inhibition (%) ([2]; 3.2 µg/animal ITH, 15 Minutes) was 4% and the “Tactile Pressure (g) Post-Treatment Average” value ([2]; 3.2 µg/animal ITH, 30 Minutes) was 10.1 g. For the same compound, the “Tactile Pressure (g) Δ Treatment Average” value ([2]; 3.2 µg/animal ITH, 30 Minutes, Δ Blank 30.2) was -1.1 g, the “Tactile Pressure (g) Post-Treatment” value ([2]; 3.2 µg/animal ITH, 30 Minutes) was 7.4 g and 14.2 g and 8.5 g and 10.0 g and 10.2 g and the “Tactile Pressure (g) Δ Treatment” value ([2]; 3.2 µg/animal ITH, 30 Minutes) was -3.8 g and -0.6 g and 1.4 g and -2.0 g and -0.5 g. For the same compound, the Inhibition (%) ([2]; 3.2 µg/animal ITH, 30 Minutes) was -4%, the “Tactile Pressure (g) Post-Treatment Average” value ([2]; 3.2 µg/animal ITH, 60 Minutes) was 9.3 g and the “Tactile Pressure (g) Δ Treatment Average” value ([2]; 3.2 µg/animal ITH, 60 Minutes, Δ Blank 30.2) was -1.8 g. For the same compound, the “Tactile Pressure (g) Post-Treatment” value ([2]; 3.2 µg/animal ITH, 60 Minutes) was 7.5 g and 12.7 g and 11.3 g and 6.5 g and 8.7 g, the “Tactile Pressure (g) Δ Treatment” value ([2]; 3.2 µg/animal ITH, 60 Minutes) was -3.7 g and -2.1 g and 4.2 g and -5.5 g and -2.0 g and the “Inhibition (%)” value ([2]; 3.2 µg/animal ITH, 60 Minutes) was -6%. For the same compound, the “Tactile Pressure (g) Post-Treatment Average” value ([2]; 3.2 µg/animal ITH, 120 Minutes) was 9.2 g, the “Tactile Pressure (g) Δ Treatment Average” value ([2]; 3.2 µg/animal ITH, 120 Minutes, Δ Blank 30.2) was -2.0 g and the “Tactile Pressure (g) Post-Treatment” value [2, 5] was 6.1 g and 12.4 g and 7.9 g and 10.8 g and 8.6 g. The “Tactile Pressure (g) Δ Treatment” value [2, 5] was -5.1 g and -2.4 g and 0.8 g and -1.2 g and -2.1 g, the “Inhibition (%)” value ([2]; 3.2 µg/animal ITH, 120 Minutes) was -7% and the “Tactile Pressure (g) Post-Treatment Average” value ([2]; 10 µg/animal ITH, 15 Minutes) was 23.3 g. For the same compound, the “Tactile Pressure (g) Δ Treatment Average” value ([2]; 10 µg/animal ITH, 15 Minutes, Δ Blank 27.9) was 13.0 g, the “Tactile Pressure (g) Post-Treatment” value ([2]; 10 µg/animal ITH, 15 Minutes) was >36.8 g and 12.4 g and 17.2 g and 26.7 g and 23.6 g and the “Tactile Pressure (g) Δ Treatment” value ([2]; 10 µg/animal ITH, 15 Minutes) was 24.7 g and 1.5 g and 11.0 g and 15.7 g and 12.3 g. For the same compound, the Inhibition (%) ([2]; 10 µg/animal ITH, 15 Minutes) was 47%, the “Tactile Pressure (g) Post-Treatment Average” value ([2]; 10 µg/animal ITH, 30 Minutes) was 26.4 g and the “Tactile Pressure (g) Δ Treatment Average” value ([2]; 10 µg/animal ITH, 30 Minutes, Δ Blank 27.9) was 16.1 g. For the same compound, the “Tactile Pressure (g) Post-Treatment” value ([2]; 10 µg/animal ITH, 30 Minutes) was 42.6 g and 7.0 g and >31.5 g and >35.5 g and 15.6 g, the “Tactile Pressure (g) Δ Treatment” value ([2]; 10 µg/animal ITH, 30 Minutes) was 30.5 g and -3.9 g and 25.3 g and 24.5 g and 4.3 g and the Inhibition (%) ([2]; 10 µg/animal ITH, 30 Minutes) was 58%. The “Tactile Pressure (g) Post-Treatment Average” value ([2]; 10 µg/animal ITH, 60 Minutes) was 20.8 g, the “Tactile Pressure (g) Δ Treatment Average” value ([2]; 10 µg/animal ITH, 60 Minutes, Δ Blank 27.9) was 10.5 g and the “Tactile Pressure (g) Post-Treatment” value ([2]; 10 µg/animal ITH, 60 Minutes) was 20.5 g and 15.1 g and 36.5 g and 23.2 g and 8.9 g. The “Tactile Pressure (g) Δ Treatment” value ([2]; 10 µg/animal ITH, 60 Minutes) was 8.4 g and 4.2 g and 30.3 g and 12.2 g and -2.4 g, the “Inhibition (%)” value ([2]; 10 µg/animal ITH, 60 Minutes) was 38% and the “Tactile Pressure (g) Post-Treatment Average” value ([2]; 10 µg/animal ITH, 120 Minutes) was 11.0 g. The “Tactile Pressure (g) Δ Treatment Average” value ([2]; 10 µg/animal ITH, 120 Minutes, Δ Blank 27.9) was 0.6 g, the “Tactile Pressure (g) Post-Treatment” value [2, 6] was 13.5 g and 10.8 g and 11.8 g and 12.3 g and 6.4 g and the “Tactile Pressure (g) Δ Treatment” value [2, 6] was 1.4 g and -0.1 g and 5.2 g and 1.3 g and -4.9 g. For the same compound, the “Inhibition (%)” value ([2]; 10 µg/animal ITH, 120 Minutes) was 2%, the “peak of analgesic activity, time post-dosing” value ([2]; 10 µg/animal intrathecal) was 30 min and the analgesic activity ([2]; 10 µg/animal intrathecal, 30 minutes post-injection) was “significant analgesic activity”. For the same compound, the analgesic activity ([2]; 10 µg/animal intrathecal, 120 minutes post-dosing) was “no longer evident”, the “effectiveness for treatment of chronic pelvic pain” value [3] was “not effective” and the “common symptoms associated with use” value [4] was “drowsiness, sedation and blood pressure and heart rate increases”.
